Our source for the Ki values is patent publication US20060194837A1, “Tetrahydroisoquinoline compounds” (priority 2004, published 2006).

The structures appear in SMILES notation.

For orientation: Ki means a measure of affinity in units of concentration, obtained from inhibition or displacement.

One experiment concerns the target T1, human H3 receptor (Homo sapiens, UniProt Q9Y5N1).
T1 construct: expressed in transfected cells
Put plainly: H3 receptor binding (N-[3H]-α-methylhistamine displacement). As to conditions: membranes of SK-N-MC cells expressing cloned human H3 receptor, 0.8 nM N-[3H]-α-methylhistamine, 60 min at 25° C. The procedure:
Briefly, cell pellets from SK-N-MC cells expressing the human H3 receptor were homogenized in 50 mM Tris-HCl/5 mM EDTA and re-centrifuged at 30,000 g for 30 min. Pellets were re-homogenized in 50 mM Tris/6 mM EDTA (pH 7.4). Membranes were incubated with 0.8 nM N-[^3H]-α-methylhistamine plus/minus test compounds for 60 min at 25° C. and harvested by rapid filtration over GF/C glass fiber filters (pretreated with 0.3% polyethylenimine) followed by four washes with ice-cold buffer. Nonspecific binding was defined in the presence of 10 μM histamine.

Another experiment addresses T2, Rat SERT (Rattus norvegicus, UniProt P31652).
T2 construct: A rat brain without cerebellum (Zivic Laboratories, Inc.—Pittsburgh, Pa.) was homogenized; tissue Zivic Laboratories, Inc; host or cells: rat brain without cerebellum, membranes
Put plainly: Rat brain SERT binding ([3H]-citalopram displacement). As to conditions: rat brain membranes without cerebellum, 0.6 nM [3H]-citalopram, 60 min at 25° C.; read-out: Rat SERT Ki. How it is done: The supernatant was removed and re-centrifuged at 15,000 rpm for 30 min. […] Membranes were incubated with 0.6 nM [^3H]-Citalopram plus/minus test compounds for 60 min at 25° C. and harvested by rapid filtration over GF/C glass fiber filters (pretreated with 0.3% polyethylenimine) followed by four washes with ice-cold buffer.

T2 sequence (P31652 whole entry): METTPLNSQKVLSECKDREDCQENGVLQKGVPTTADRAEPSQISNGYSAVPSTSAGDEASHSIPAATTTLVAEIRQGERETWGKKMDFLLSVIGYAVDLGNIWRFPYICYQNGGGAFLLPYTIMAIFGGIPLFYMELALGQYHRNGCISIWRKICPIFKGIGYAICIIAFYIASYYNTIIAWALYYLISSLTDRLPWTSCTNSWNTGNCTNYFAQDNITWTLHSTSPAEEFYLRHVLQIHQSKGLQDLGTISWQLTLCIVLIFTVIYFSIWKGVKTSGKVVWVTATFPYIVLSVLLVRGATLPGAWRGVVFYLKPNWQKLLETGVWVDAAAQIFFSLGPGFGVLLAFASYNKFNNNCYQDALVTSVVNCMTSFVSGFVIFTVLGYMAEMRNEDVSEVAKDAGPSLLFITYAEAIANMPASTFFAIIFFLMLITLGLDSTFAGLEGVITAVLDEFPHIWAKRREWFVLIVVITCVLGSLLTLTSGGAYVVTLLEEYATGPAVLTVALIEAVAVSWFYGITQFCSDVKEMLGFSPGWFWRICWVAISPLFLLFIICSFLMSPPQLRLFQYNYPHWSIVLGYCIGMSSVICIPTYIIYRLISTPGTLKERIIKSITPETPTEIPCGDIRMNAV
T1 sequence (Q9Y5N1 whole entry): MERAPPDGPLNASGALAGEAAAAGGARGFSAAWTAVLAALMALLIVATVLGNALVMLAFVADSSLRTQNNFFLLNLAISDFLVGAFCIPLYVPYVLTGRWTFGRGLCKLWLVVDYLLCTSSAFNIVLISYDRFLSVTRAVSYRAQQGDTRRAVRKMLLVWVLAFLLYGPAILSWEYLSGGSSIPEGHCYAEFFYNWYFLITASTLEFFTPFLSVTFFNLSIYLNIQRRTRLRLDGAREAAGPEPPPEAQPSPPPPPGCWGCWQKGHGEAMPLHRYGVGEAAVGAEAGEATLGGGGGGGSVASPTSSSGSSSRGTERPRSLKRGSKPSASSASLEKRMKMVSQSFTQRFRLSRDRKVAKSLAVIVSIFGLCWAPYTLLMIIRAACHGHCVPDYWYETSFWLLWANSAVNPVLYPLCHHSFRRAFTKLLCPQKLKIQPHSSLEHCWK

In the case of `COc1ccc(C2CN(C)Cc3cc(OCC4CN(C)CCO4)ccc32)cc1` (mixture of isomers) [Example 251, 4-(4-Methoxy-phenyl)-2-methyl-7-(4-methyl-morpholin-2-ylmethoxy)-1,2,3,4-tetrahydro-isoquinoline], the Ki at human H3 receptor came to 67 nM; on Rat SERT, 12 nM.
As to `COc1ccc(C2CN(C)Cc3cc(OC4CCNCC4)ccc32)c(F)c1` (stereo not drawn) [Example 150, 4-(2-Fluoro-4-methoxy-phenyl)-2-methyl-7-(piperidin-4-yloxy)-1,2,3,4-tetrahydro-isoquinoline], the values for the Ki on human H3 receptor and on Rat SERT were 175 nM and 7 nM, respectively.
With `COc1ccc(C2CN(C)Cc3cc(OCC(F)CN4CCC(F)CC4)ccc32)cc1` (stereo not drawn) [Example 43, 7-[2-Fluoro-3-(4-fluoro-piperidin-1-yl)-propoxy]-4-(4-methoxy-phenyl)-2-methyl-1,2,3,4-tetrahydro-isoquinoline], the Ki turned out to be 18 nM on human H3 receptor and 3 nM at Rat SERT.
For `CCCN1Cc2cc(OCCCN3CCCCC3)ccc2C(c2ccc(OC)cc2)C1` (stereo not drawn) [Example 67, 4-(4-Methoxy-phenyl)-7-(3-piperidin-1-yl-propoxy)-2-propyl-1,2,3,4-tetrahydro-isoquinoline], the values for the Ki at human H3 receptor and on Rat SERT were 0.5 nM and 104 nM, respectively.
Take `CN1Cc2cc(OCCCN3CCC(F)CC3)ccc2C(c2ccc(Sc3ncccn3)nc2)C1` (stereo not drawn) [Example 196, 7-[3-(4-Fluoro-piperidin-1-yl)-propoxy]-2-methyl-4-[6-(pyrimidin-2-ylsulfanyl)-pyridin-3-yl]-1,2,3,4-tetrahydro-isoquinoline]: the Ki came out at 4 nM on human H3 receptor and 2000 nM on Rat SERT.
In the case of `COc1ccc(C2CN(C)Cc3cc(OCCCN4Cc5ccccc5C4)ccc32)cc1` (stereo not drawn) [Example 16, 7-[3-(1,3-Dihydro-isoindol-2-yl)-propoxy]-4-(4-methoxy-phenyl)-2-methyl-1,2,3,4-tetrahydro-isoquinoline], the values for the Ki on human H3 receptor and at Rat SERT were 25 nM and 6 nM, respectively.
Regarding `COc1ccc(C2CN([C@H](C)c3ccccc3)Cc3cc(OCCCN4CCOCC4)ccc32)cc1` (single isomer, unassigned) [Example 75, 4-(4-Methoxy-phenyl)-7-(3-morpholin-4-yl-propoxy)-2-(1-phenyl-ethyl)-1,2,3,4-tetrahydro-isoquinoline], the Ki came to 14 nM on human H3 receptor and 79 nM on Rat SERT.
Turning to `COc1ccc(C2CN(C)Cc3cc(OC4CCN(C(C)C)CC4)ccc32)c(F)c1` (stereo not drawn) [Example 119, 4-(2-Fluoro-4-methoxy-phenyl)-7-(1-isopropyl-piperidin-4-yloxy)-2-methyl-1,2,3,4-tetrahydro-isoquinoline], the Ki at human H3 receptor was 1 nM; at Rat SERT, 9 nM.
In the case of `COc1ccc(C2CN(C)Cc3cc(OCCCN4CCC(F)CC4)ccc32)cc1F` (single isomer, unassigned) [Example 143, 4-(3-Fluoro-4-methoxy-phenyl)-7-[3-(4-fluoro-piperidin-1-yl)-propoxy]-2-methyl-1,2,3,4-tetrahydro-isoquinoline], the Ki amounted to 4 nM on human H3 receptor and 18 nM at Rat SERT.
For `C#Cc1ccc(C2CN(C)Cc3cc(OCCCN4CCC(F)CC4)ccc32)cn1` (stereo not drawn) [Example 190, 4-(6-Ethynyl-pyridin-3-yl)-7-[3-(4-fluoro-piperidin-1-yl)-propoxy]-2-methyl-1,2,3,4-tetrahydro-isoquinoline], the Ki on human H3 receptor stood at 29 nM; on Rat SERT, 119 nM.
Taken in the same sequence, the figures for `COc1ccc(C2CN(C)Cc3cc(OCCCN4CCC5(CC4)OCCO5)ccc32)cc1` (stereo not drawn) [Example 41, 7-[3-(1,4-Dioxa-8-aza-spiro[4.5]dec-8-yl)-propoxy]-4-(4-methoxy-phenyl)-2-methyl-1,2,3,4-tetrahydro-isoquinoline] were 14 nM and 6 nM.
With `CCNCCCOc1ccc2c(c1)CN(C)CC2c1ccc(OC)cc1` (stereo not drawn) [Example 232, Ethyl-{3-[4-(4-methoxy-phenyl)-2-methyl-1,2,3,4-tetrahydro-isoquinolin-7-yloxy]-propyl}-amine], the results for the Ki at human H3 receptor and at Rat SERT were 20 nM and 1 nM, respectively.
